In data set [1] the test system is S. aureus ATCC29213. Briefly: Human serum binding effect: MIC with and without human serum. The format is cell-based, Staphylococcus aureus. The note with it: 1:1 human serum:MHB. In outline:
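Serum binding was estimated as the ratio of S. aureus ATCC29213 MIC in 1:1 human serum:Mueller-Hinton broth to MIC without serum. Compounds were serially 2-fold diluted, and wells received an early-log-phase inoculum at 1×10^6 CFU/mL final. Inoculum size was checked by colony counts on TSA after overnight incubation at 35 °C.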

Data set [2] concerns S. aureus Col (Meth^R)(lac^−). Put plainly: Broth microdilution MIC (NCCLS). The format is cell-based. Particulars: Staphylococcus aureus. The method, boiled down:
(§1)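 Endpoint: lowest concentration preventing visible or OD650-detected growth. Conditions: Mueller-Hinton broth, serial 2-fold compound dilutions, 5×10^5 CFU/mL, 35° C for 24 h. Inoculum counts were checked by plating on TSA.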
In general terms: Broth dilution looks for growth in wells or tubes with falling amounts of substance.

Data set [3] relates to P. aeruginosa ATCC 27853. Briefly: Broth microdilution MIC (NCCLS). The format is cell-based. Particulars: Pseudomonas aeruginosa, ATCC27853. In outline: (§2)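 Following NCCLS guidance, compounds were titrated 2-fold in Mueller-Hinton broth against 5×10^5 CFU/mL inocula. After 24 h at 35° C, growth was judged by absorbance at 650 nm and by eye. The MIC was taken as the lowest concentration that stopped growth.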

Data set [4] relates to S. haemolyticus 05 (Meth^R). Put plainly: Broth microdilution MIC (NCCLS). Particulars: Staphylococcus haemolyticus. The format is cell-based. The method, boiled down:
as §1

For data set [5], the system named is S. aureus 76 (Meth^R)(lac^+). Put plainly: Broth microdilution MIC (NCCLS). The format is cell-based. The note with it: Staphylococcus aureus. The method, boiled down:
as §1

For data set [6], the system named is S. aureus PC1 (Meth^S)(lac^+). Put plainly: Broth microdilution MIC (NCCLS). The format is cell-based. The note with it: Staphylococcus aureus. The method, boiled down:
as §1

In data set [7] the test system is E. faecium VanA (Van^R). Briefly: Broth microdilution MIC (NCCLS). It is filed as cell-based. The note with it: Enterococcus faecium. The method, boiled down: as §1
Data set [8] has as its system E. coli ATCC25992. Put plainly: Broth microdilution MIC (NCCLS). It is filed as cell-based. Particulars: Escherichia coli. In outline: as §2
The test system of data set [9] is E. faecalis ATCC 29212. Briefly: Broth microdilution MIC (NCCLS). It is filed as cell-based. The note with it: Enterococcus faecalis, ATCC29212. The method, boiled down:
as §1

Data set [10] has as its system S. aureus ATCC 13709 (Meth^S). Briefly: Broth microdilution MIC (NCCLS). It is filed as cell-based. Particulars: Staphylococcus aureus, ATCC13709, S. aureus ATCC 13709 (Meth^S); read-out: MIC. The method, boiled down:
as §1

For data set [11], the system named is E. faecalis VanB (Van^R). Put plainly: Broth microdilution MIC (NCCLS). The note with it: Enterococcus faecalis. The format is cell-based. The method, boiled down:
as §1

The test system of data set [12] is S. aureus Spain #356 (Meth^R). Put plainly: Broth microdilution MIC (NCCLS). Particulars: Staphylococcus aureus, 24 h. It is filed as cell-based. The method, boiled down:
as §1

The subject of data set [13] is E. faecium ATCC 35667. Briefly: Broth microdilution MIC (NCCLS). It is filed as cell-based. Particulars: Enterococcus faecium, ATCC35667. In outline: as §1
Data set [14] relates to E. faecium A491 (Amp^R). Put plainly: Broth microdilution MIC (NCCLS). It is filed as cell-based. The note with it: Enterococcus faecium. In outline: as §1
For data set [15], the system named is S. aureus ATCC 29213. Put plainly: Broth microdilution MIC (NCCLS). The format is cell-based. Particulars: Staphylococcus aureus, ATCC29213; S. aureus ATCC 29213; Mueller-Hinton broth, 24 h at 35° C.; read-out: MIC. In outline:
as §1

For data set [16], the system named is S. aureus ATCC 33593 (Meth^R). Put plainly: Broth microdilution MIC (NCCLS). The note with it: Staphylococcus aureus, ATCC33593. The format is cell-based. In outline:
as §1

SMILES strings stand for the structures. ≈ marks a conversion by molar mass, not a printed value.

Broadly, the MIC is the smallest concentration in the dilution series that meets the test's criterion for growth inhibition.

In the case of `N=C(N)NCCSCc1cnccc1SC1=C(C(=O)O)N2C(=O)[C@@H](NC(=O)/C(=N\O)c3nsc(N)n3)[C@H]2SC1` [Cmpd 25, (7R)-7-[(Z)-2-(5-amino-1,2,4-thiadiazol-3-yl)-2-(hydroxyimino)acetamido]-3-[3-(2-guanidinoethylthiomethyl)pyrid-4-ylthio]-3-cephem-4-carboxylic acid], in [1], the “Human serum binding effect (ratio of MIC value determined with and without human serum added)” value is 1. Also, the MIC in [2] is 1 µg/mL (≈ 1.64 µM); in data set [3], over 32 µg/mL; in [4], 2 µg/mL (≈ 3.27 µM); in [5], 1 µg/mL (≈ 1.64 µM); in data set [6], 0.13 µg/mL (≈ 0.213 µM); in data set [7], 1 µg/mL (≈ 1.64 µM). The MIC in data set [8] was 1 µg/mL (≈ 1.64 µM); in data set [9], 0.13 µg/mL (≈ 0.213 µM); in data set [10], 0.13 µg/mL (≈ 0.213 µM); in [11], 0.25 µg/mL (≈ 0.409 µM); in [12] it was 1 µg/mL (≈ 1.64 µM); in data set [13], 0.5 µg/mL (≈ 0.819 µM). The MIC is 32 µg/mL (≈ 52.4 µM) in data set [14], 0.25 µg/mL (≈ 0.409 µM) in data set [15] and 1 µg/mL (≈ 1.64 µM) in [16].

For `NCCSCc1nc(N)sc1SC1=C(C(=O)O)N2C(=O)[C@@H](NC(=O)/C(=N\O)c3nc(N)sc3Cl)[C@H]2SC1` [Cmpd 3, (7R)-7-[(Z)-2-(2-amino-5-chlorothiazol-4-yl)-2-(hydroxyimino)acetamido]-3-[4-(2-aminoethylthiomethyl)-2-amino-1,3-thiazol-5-ylthio]-3-cephem-4-carboxylic acid], the “Human serum binding effect (ratio of MIC value determined with and without human serum added)” value in [1] worked out at 4. For the same molecule, the MIC in data set [3] was 4 µg/mL (≈ 6.42 µM); in [4], 1 µg/mL (≈ 1.6 µM); in [5] it was 1 µg/mL (≈ 1.6 µM); in [6], 0.25 µg/mL (≈ 0.401 µM); in data set [7], 8 µg/mL (≈ 12.8 µM); in data set [10], 0.13 µg/mL (≈ 0.209 µM). The MIC in [11] was found to be 0.25 µg/mL (≈ 0.401 µM); in [12], 1 µg/mL (≈ 1.6 µM); in data set [13], 1 µg/mL (≈ 1.6 µM); in [15] it was 0.25 µg/mL (≈ 0.401 µM).

As to `NCCSCc1ncccc1SC1=C(C(=O)O)N2C(=O)[C@@H](NC(=O)/C(=N\O)c3nc(N)sc3Cl)[C@H]2SC1` [Cmpd 13, (7R)-7-[(Z)-2-(2-amino-5-chlorothiazol-4-yl)-2-(hydroxyimino)acetamido]-3-[2-(2-aminoethylthiomethyl)pyrid-3-ylthio]-3-cephem-4-carboxylic acid], the “Human serum binding effect (ratio of MIC value determined with and without human serum added)” value in [1] came to 2. The MIC in data set [2] was determined as 0.5 µg/mL (≈ 0.83 µM); in data set [6], 0.25 µg/mL (≈ 0.415 µM); in data set [15], 0.25 µg/mL (≈ 0.415 µM).

For `NCCSCc1cnccc1SC1=C(C(=O)O)N2C(=O)[C@@H](NC(=O)/C(=N\O)c3nsc(N)n3)[C@H]2SC1` [Cmpd 18, (7R)-7-[(Z)-2-(5-amino-1,2,4-thiadiazol-3-yl)-2-(hydroxyimino)acetamido]-3-[3-(2-aminoethylthiomethyl)pyrid-4-ylthio]-3-cephem-4-carboxylic acid], the “Human serum binding effect (ratio of MIC value determined with and without human serum added)” value in data set [1] worked out at 2. The MIC in [2] was 1 µg/mL (≈ 1.76 µM); in data set [3] it was over 32 µg/mL; in data set [4] it was 2 µg/mL (≈ 3.52 µM); in [5], 1 µg/mL (≈ 1.76 µM); in data set [6], 0.13 µg/mL (≈ 0.229 µM); in [7], 1 µg/mL (≈ 1.76 µM). The MIC came to 0.5 µg/mL (≈ 0.879 µM) in [8]; 0.13 µg/mL (≈ 0.229 µM) in data set [9]; 0.13 µg/mL (≈ 0.229 µM) in data set [10]; 0.25 µg/mL (≈ 0.44 µM) in [11]; 1 µg/mL (≈ 1.76 µM) in data set [12]; 0.5 µg/mL (≈ 0.879 µM) in data set [13]. In addition, the MIC in [14] is 32 µg/mL (≈ 56.3 µM); in data set [15], 0.13 µg/mL (≈ 0.229 µM); in data set [16], 1 µg/mL (≈ 1.76 µM).

With `NCCSCc1ccncc1SC1=C(C(=O)O)N2C(=O)[C@@H](NC(=O)/C(=N\O)c3nc(N)sc3Cl)[C@H]2SC1` [Cmpd 21, (7R)-7-[(Z)-2-(2-amino-5-chlorothiazol-4-yl)-2-(hydroxyimino)acetamido]-3-[4-(2-aminoethylthiomethyl)pyrid-3-ylthio]-3-cephem-4-carboxylic acid], the “Human serum binding effect (ratio of MIC value determined with and without human serum added)” value in data set [1] amounted to 2. The same molecule had a minimum inhibitory concentration (MIC) in data set [6] of 0.25 µg/mL (≈ 0.415 µM).

In the case of `NCCSCc1ncsc1SC1=C(C(=O)O)N2C(=O)[C@@H](NC(=O)/C(=N\O)c3cccc(N)n3)[C@H]2SC1` [Cmpd 23, (7R)-7-[(Z)-2-(2-aminopyrid-6-yl)-2-(hydroxyimino)acetamido]-3-[4-(2-aminoethylthiomethyl)-1,3-thiazol-5-ylthio]-3-cephem-4-carboxylic acid], the MIC in data set [2] was 1 µg/mL (≈ 1.76 µM); in data set [3] it was over 32 µg/mL; in data set [4], 4 µg/mL (≈ 7.05 µM); in [5] it was 2 µg/mL (≈ 3.52 µM); in [6], 0.13 µg/mL (≈ 0.229 µM); in data set [7] it was 2 µg/mL (≈ 3.52 µM). In addition, the MIC came to 16 µg/mL (≈ 28.2 µM) in [8]; 0.25 µg/mL (≈ 0.44 µM) in data set [9]; 0.06 µg/mL (≈ 0.106 µM) in data set [10]; 0.5 µg/mL (≈ 0.881 µM) in [11]; 2 µg/mL (≈ 3.52 µM) in [12]; 2 µg/mL (≈ 3.52 µM) in [13]. Besides, the MIC in data set [15] is 0.13 µg/mL (≈ 0.229 µM); in [16] it was 1 µg/mL (≈ 1.76 µM).

With `N=C(N)NCCSCc1ncccc1SC1=C(C(=O)O)N2C(=O)[C@@H](NC(=O)/C(=N\O)c3nsc(N)n3)[C@H]2SC1` [Cmpd 14, (7R)-7-[(Z)-2-(5-amino-1,2,4-thiadiazol-3-yl)-2-(hydroxyimino)acetamido]-3-[2-(2-guanidinoethylthiomethyl)pyrid-3-ylthio]-3-cephem-4-carboxylic acid], the “Human serum binding effect (ratio of MIC value determined with and without human serum added)” value in data set [1] turned out to be 2. Also, in data set [11], the lowest concentration to inhibit growth (MIC) was 0.25 µg/mL (≈ 0.409 µM).

As for `NCCSCc1ncccc1SC1=C(C(=O)O)N2C(=O)[C@@H](NC(=O)/C(=N\O)c3nsc(N)n3)[C@H]2SC1` [Cmpd 17, (7R)-7-[(Z)-2-(5-amino-1,2,4-thiadiazol-3-yl)-2-(hydroxyimino)acetamido]-3-[2-(2-aminoethylthiomethyl)pyrid-3-ylthio]-3-cephem-4-carboxylic acid], the “Human serum binding effect (ratio of MIC value determined with and without human serum added)” value in [1] stood at 2. In addition, the MIC in data set [6], in [10] and in [15] was 0.25 µg/mL (≈ 0.44 µM) throughout.

Consider `NCCSCc1cnccc1SC1=C(C(=O)O)N2C(=O)[C@@H](NC(=O)/C(=N\O)c3cccc(N)n3)[C@H]2SC1` [Cmpd 24, (7R)-7-[(Z)-2-(2-aminopyrid-6-yl)-2-(hydroxyimino)acetamido]-3-[3-(2-aminoethylthiomethyl)pyrid-4-ylthio]-3-cephem-4-carboxylic acid], for which the MIC in data set [2] was 1 µg/mL (≈ 1.78 µM); in [3], over 32 µg/mL; in [4] it was 2 µg/mL (≈ 3.56 µM); in data set [5], 1 µg/mL (≈ 1.78 µM); in data set [6] it was 0.25 µg/mL (≈ 0.445 µM); in [7], 2 µg/mL (≈ 3.56 µM). For the same molecule, the MIC in data set [8] was determined as 16 µg/mL (≈ 28.5 µM); in [9], 0.25 µg/mL (≈ 0.445 µM); in data set [10], 0.25 µg/mL (≈ 0.445 µM); in data set [11], 0.5 µg/mL (≈ 0.89 µM); in [12] it was 2 µg/mL (≈ 3.56 µM); in data set [13], 1 µg/mL (≈ 1.78 µM). Further, the MIC in data set [14] came out at 32 µg/mL (≈ 57 µM); in data set [15] it was 0.25 µg/mL (≈ 0.445 µM); in [16], 2 µg/mL (≈ 3.56 µM).

Source of the values: patent US6723716B1, “7-acylamino-3-heteroarylthio-3-cephem carboxylic acid antibiotics and prodrugs thereof” (Essential Therapeutics, Inc., priority 1999, dated 2004).
